Measurements as given in patent publication US20070049593A1 (priority 2004, published 2007).
Counter-ions that a name gives are not always drawn.

Molecular target: T1, HCV polymerase (Hepatitis C virus genotype 1b, UniProt P26663)
T1 construct: a region encoding NS5B (J Virol 1991 March, 65(3), 1105-13, 544 amino acids after deletion of 47 amino acids on the C-terminal); 6xHis (C); made in house; host or cells: Escherichia coli
Assay: biochemical
Parameters: species or system HCV BK strain
Conditions: not given
Summary of the method: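 His-tagged NS5B (BK strain, 47-aa C-terminal deletion, E. coli-expressed) at 0.5 μg/ml copied 5 μg/ml run-off RNA bearing the HCV 3′ UTR with 2 μM UTP plus [3H]UTP, 50 μM ATP/GTP, in pH 7.5 Tris with 5 mM MgCl2, 25 °C, 90 min. TCA-precipitated RNA was counted and IC50 calculated.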

T1 sequence (P26663 2420-2963): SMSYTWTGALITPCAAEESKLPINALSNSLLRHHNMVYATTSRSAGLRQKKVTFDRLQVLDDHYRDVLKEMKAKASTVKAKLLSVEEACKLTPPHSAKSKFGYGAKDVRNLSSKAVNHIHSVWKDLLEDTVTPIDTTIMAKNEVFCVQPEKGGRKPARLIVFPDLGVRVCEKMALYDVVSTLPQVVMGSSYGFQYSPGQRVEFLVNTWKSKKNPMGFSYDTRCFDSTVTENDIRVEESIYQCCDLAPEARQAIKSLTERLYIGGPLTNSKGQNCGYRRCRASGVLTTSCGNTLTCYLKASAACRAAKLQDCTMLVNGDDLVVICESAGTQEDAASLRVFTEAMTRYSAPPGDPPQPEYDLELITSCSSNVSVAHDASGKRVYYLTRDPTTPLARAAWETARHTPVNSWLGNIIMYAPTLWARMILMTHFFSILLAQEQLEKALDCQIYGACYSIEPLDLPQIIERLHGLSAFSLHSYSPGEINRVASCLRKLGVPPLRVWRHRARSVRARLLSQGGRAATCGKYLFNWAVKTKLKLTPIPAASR

SMILES	IC50
NC(=O)c1ccc2c(c1)N(CCN1CCCCC1)CCn1c-2c(C2CCCCC2)c2ccc(C(=O)O)cc21 [Example 1-491, 3-carbamoyl-13-cyclohexyl-5-[2-(piperidin-1-yl)ethyl]-6,7-dihydro-5H-benzo[5,6][1,4]diazepino[7,1-a]indole-10-carboxylic acid monohydrochloride]	< 100 nM
Cc1ccc2c(c1)N(CCC1CCCCC1)CCn1c-2c(C2CCCCC2)c2ccc(C(=O)O)cc21 [Example 1-492, 13-cyclohexyl-5-(2-cyclohexylethyl)-3-methyl-6,7-dihydro-5H-benzo[5,6][1,4]diazepino[7,1-a]indole-10-carboxylic acid]	< 100 nM
CCN(CC)CCCCN1CCn2c(c(C3CCCCC3)c3ccc(C(=O)O)cc32)-c2ccc(C)cc21 [Example 1-493, 13-cyclohexyl-5-(4-diethylaminobutyl)-3-methyl-6,7-dihydro-5H-benzo[5,6][1,4]diazepino[7,1-a]indole-10-carboxylic-acid dihydrochloride]	< 100 nM
Cc1ccc2c(c1)N(CCN1CCC[C@@H](CCO)C1)CCn1c-2c(C2CCCCC2)c2ccc(C(=O)O)cc21 [Example 1-494, 13-cyclohexyl-5-{2-[(S)-3-(2-hydroxyethyl)piperidin-1-yl)ethyl}-3-methyl-6,7-dihydro-5H-benzo[5,6][1,4]diazepino[7,1-a]indole-10-carboxylic acid dihydrochloride]	< 100 nM
O=C(O)c1ccc2c(c1)N(CCN1CCCCC1)CCn1c-2c(C2CCCCC2)c2ccc(C(=O)O)cc21 [Example 1-495, 13-cyclohexyl-5-[2-(piperidin-1-yl)ethyl]-6,7-dihydro-5H-benzo[5,6][1,4]diazepino[7,1-a]indole-3,10-dicarboxylic acid monohydrochloride]	< 100 nM
CN1CCn2c(c(C3CCCCC3)c3ccc(C(=O)O)cc32)-c2ccc(OCCCN3CCCCC3)cc21 [Example 1-496, 13-cyclohexyl-5-methyl-3-[3-(piperidin-1-yl)propoxy]-6,7-dihydro-5H-benzo[5,6][1,4]diazepino[7,1-a]indole-10-carboxylic acid dihydrochloride]	< 100 nM
O=C(O)c1ccc2c(C3CCCCC3)c3n(c2c1)CCN(CCN1CCC[C@@H](COc2ccccc2)C1)c1ccccc1-3 [Example 1-497, 13-cyclohexyl-5-[2-((R)-3-phenoxymethylpiperidin-1-yl)ethyl]-6,7-dihydro-5H-benzo[5,6][1,4]diazepino[7,1-a]indole-10-carboxylic acid dihydrochloride]	< 100 nM
CCOc1ccc2c(c1)N(CCN1CCC[C@@H](COC)C1)CCn1c-2c(C2CCCCC2)c2ccc(C(=O)O)cc21 [Example 1-499, 13-cyclohexyl-3-ethoxy-5-[2-((R)-3-methoxymethylpiperidin-1-yl)ethyl]-6,7-dihydro-5H-benzo[5,6][1,4]diazepino[7,1-a]indole-10-carboxylic acid dihydrochloride]	< 100 nM
CCOc1ccc2c(c1)N(CCN1CCCOCC1)CCn1c-2c(C2CCCCC2)c2ccc(C(=O)O)cc21 [Example 1-500, 13-cyclohexyl-3-ethoxy-5-[2-(1,4-oxazepan-4-yl)ethyl]-6,7-dihydro-5H-benzo[5,6][1,4]diazepino[7,1-a]indole-10-carboxylic acid dihydrochloride]	< 100 nM
CCOc1ccc2c(c1)N(CCN1CCC(CCOC)CC1)CCn1c-2c(C2CCCCC2)c2ccc(C(=O)O)cc21 [Example 1-501, 13-cyclohexyl-3-ethoxy-5-{2-[4-(2-methoxyethyl)piperidin-1-yl]ethyl}-6,7-dihydro-5H-benzo[5,6][1,4]diazepino[7,1-a]indole-10-carboxylic acid dihydrochloride]	< 100 nM
COCCC1CCN(CCN2CCn3c(c(C4CCCCC4)c4ccc(C(=O)O)cc43)-c3ccc(C)cc32)CC1 [Example 1-502, 13-cyclohexyl-5-{2-[4-(2-methoxyethyl)piperidin-1-yl]ethyl}-3-methyl-6,7-dihydro-5H-benzo[5,6][1,4]diazepino[7,1-a]indole-10-carboxylic acid dihydrochloride]	< 100 nM
CCN(CC)CC(O)CN1CCn2c(c(C3CCCCC3)c3ccc(C(=O)O)cc32)-c2ccc(Cl)cc21 (centres unmarked) [Example 1-503, 3-chloro-13-cyclohexyl-5-(3-diethylamino-2-hydroxypropyl)-6,7-dihydro-5H-benzo[5,6][1,4]diazepino[7,1-a]indole-10-carboxylic acid dihydrochloride]	< 100 nM
CC(=O)N1CCCN(CCN2CCn3c(c(C4CCCCC4)c4ccc(C(=O)O)cc43)-c3ccc(C)cc32)CC1 [Example 1-504, 5-[2-(4-acetyl-1,4-diazepan-1-yl)ethyl]-13-cyclohexyl-3-methyl-6,7-dihydro-5H-benzo[5,6][1,4]diazepino[7,1-a]indole-10-carboxylic acid dihydrochloride]	< 100 nM
Cc1ccc2c(c1)NCCn1c-2c(C2CCCCC2)c2ccc(S(N)(=O)=O)cc21 [Example 1-506, 13-cyclohexyl-3-methyl-6,7-dihydro-5H-benzo[5,6][1,4]diazepino[7,1-a]indole-10-sulfonamide]	100 to 1000 nM
Cc1ccc2c(c1)N(CCN1CCCCC1)CCn1c-2c(C2CCCCC2)c2ccc(S(N)(=O)=O)cc21 [Example 1-507, 13-cyclohexyl-3-methyl-5-[2-(piperidin-1-yl)ethyl]-6,7-dihydro-5H-benzo[5,6][1,4]diazepino[7,1-a]indole-10-sulfonamide dihydrochloride]	100 to 1000 nM
COC[C@@H]1CCCN(CCN2CCn3c(c(C4CCCCC4)c4ccc(C(=O)O)cc43)-c3ccc(OC)cc32)C1 [Example 1-508, 13-cyclohexyl-3-methoxy-5-[2-((R)-3-methoxymethylpiperidin-1-yl)ethyl]-6,7-dihydro-5H-benzo[5,6][1,4]diazepino[7,1-a]indole-10-carboxylic acid dihydrochloride]	< 100 nM
COC[C@@H]1CCCN(CCN2CCn3c(c(C4CCCCC4)c4ccc(C(=O)O)cc43)-c3ccc(F)cc32)C1 [Example 1-509, 13-cyclohexyl-3-fluoro-5-[2-((R)-3-methoxymethylpiperidin-1-yl)ethyl]-6,7-dihydro-5H-benzo[5,6][1,4]diazepino[7,1-a]indole-10-carboxylic acid dihydrochloride]	< 100 nM
COc1ccc2c(c1)N(CCN1CCCOCC1)CCn1c-2c(C2CCCCC2)c2ccc(C(=O)O)cc21 [Example 1-510, 13-cyclohexyl-3-methoxy-5-[2-(1,4-oxazepan-4-yl)ethyl]-6,7-dihydro-5H-benzo[5,6][1,4]diazepino[7,1-a]indole-10-carboxylic acid dihydrochloride]	< 100 nM
CCN(CCCN1CCn2c(c(C3CCCCC3)c3ccc(C(=O)O)cc32)-c2ccc(C)cc21)CCOC [Example 1-511, 13-cyclohexyl-5-{3-[N-ethyl-N-(2-methoxyethyl)amino]propyl}-3-methyl-6,7-dihydro-5H-benzo[5,6][1,4]diazepino[7,1-a]indole-10-carboxylic acid dihydrochloride]	< 100 nM
CCN(CCO)CCCN1CCn2c(c(C3CCCCC3)c3ccc(C(=O)O)cc32)-c2ccc(C)cc21 [Example 1-512, 13-cyclohexyl-5-{3-[N-ethyl-N-(2-hydroxyethyl)amino]propyl}-3-methyl-6,7-dihydro-5H-benzo[5,6][1,4]diazepino[7,1-a]indole-10-carboxylic acid dihydrochloride]	< 100 nM
CCc1ccc2c(c1)N(CCCN(CC)CCCOC)CCn1c-2c(C2CCCCC2)c2ccc(C(=O)O)cc21 [Example 1-513, 13-cyclohexyl-5-{3-[N-ethyl-N-(3-methoxypropyl)amino]propyl}-3-ethyl-6,7-dihydro-5H-benzo[5,6][1,4]diazepino[7,1-a]indole-10-carboxylic acid dihydrochloride]	< 100 nM
CCOCC[C@@H]1CCCN(CCN2CCn3c(c(C4CCCCC4)c4ccc(C(=O)O)cc43)-c3ccc(C)cc32)C1 [Example 1-514, 13-cyclohexyl-5-{2-[(S)-3-(2-ethoxyethyl)piperidin-1-yl]ethyl}-3-methyl-6,7-dihydro-5H-benzo[5,6][1,4]diazepino[7,1-a]indole-10-carboxylic acid dihydrochloride]	< 100 nM
CCOCC[C@@H]1CCCN(CCN2CCn3c(c(C4CCCCC4)c4ccc(C(=O)O)cc43)-c3ccc(OCC)cc32)C1 [Example 1-515, 13-cyclohexyl-3-ethoxy-5-{2-[(S)-3-(2-ethoxyethyl)piperidin-1-yl]ethyl}-6,7-dihydro-5H-benzo[5,6][1,4]diazepino[7,1-a]indole-10-carboxylic acid dihydrochloride]	< 100 nM
Cc1ccc2c(c1)N(C)CCn1c-2c(C2CCCCC2)c2ccc(S(N)(=O)=O)cc21 [Example 1-517, 13-cyclohexyl-3,5-dimethyl-6,7-dihydro-5H-benzo[5,6][1,4]diazepino[7,1-a]indole-10-sulfonamide]	100 to 1000 nM
COC(=O)N1CCCN(CCN2CCn3c(c(C4CCCCC4)c4ccc(C(=O)O)cc43)-c3ccc(C)cc32)CC1 [Example 1-518, 13-cyclohexyl-5-[2-(4-methoxycarbonyl-1,4-diazepan-1-yl)ethyl]-3-methyl-6,7-dihydro-5H-benzo[5,6][1,4]diazepino[7,1-a]indole-10-carboxylic acid dihydrochloride]	< 100 nM

Same assay, conditions: 25° C., 90 min; [5,6-3H]UTP incorporation into RNA; read-out: HCV polymerase inhibitory activity IC50

SMILES	IC50
CCOc1ccc2c(c1)N(CCN1CCCCCCC1)CCn1c-2c(C2CCCCC2)c2ccc(C(=O)O)cc21 [Example 1-498, 5-[2-(azocan-1-yl)ethyl]-13-cyclohexyl-3-ethoxy-6,7-dihydro-5H-benzo[5,6][1,4]diazepino[7,1-a]indole-10-carboxylic acid monohydrochloride]	< 100 nM
